Test results: patent publication US9023789B2, “Amylin analogs and pharmaceutical compositions thereof” (Novo Nordisk A/S, priority 2012, dated 2015)
Like-named read-outs stand apart in the source and are kept apart here. Numbered stars: 1 amine (or outer) side, 2 acyl side, 3 side chain; on linkers, the order of the positions; unused ones are H or OH. Bridge positions count the residues as written; N and C are the ends. Side chains are listed from the residue outwards. Peptide text beside a SMILES is read from it. * marks the point of attachment. C20 diacid = O=C(O)CCCCCCCCCCCCCCCCCCC(=O)*; γGlu = O=C(O)[C@H](CCC(=O)[*:2])N[*:1]; AEEA = NCCOCCOCC(=O)O

Legend:
Sprague Dawley (SD) rats = experiment: ASSAY (I) efficacy testing on appetite (food intake) using an ad libitum fed rat model; type: in vivo; conditions: rat, 30 nmol/kg
How it was run: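 Individual food consumption was logged each hour up to 7 h and again at 24 h, occasionally 48 h, with Grubbs-test outliers removed. Each 200–250 g Sprague Dawley rat, free-feeding in its home cage under reversed lighting, received a single ip, po or sc dose of 0.01–3 mg/kg at lights-off, alongside a vehicle group.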

[1] = ASSAY (IV) determination of solubility; type: physicochemical
How it was run: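 Solubility measured by UPLC of supernatant after centrifugation, following 18 h at room temperature. Peptide ([…] in water) was diluted 1:1 into 100 mM glycylglycine (pH 3.0, 4.0, 5.0) or bistrispropane (pH 6.0-8.0).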

rat calcitonin receptor = target: T1, rat calcitonin receptor (Rattus norvegicus, UniProt P32214); experiment: ASSAY (VIII) binding to the rat calcitonin receptor; conditions: Table 7, read-out: rCTR bind IC50
T1 construct: expressed in transfected cells; host or cells: BHK tk'ts 13 (transient, FuGENE 6), membranes
T1 sequence (P32214 25-479 isoform P32214-2 limits assumed): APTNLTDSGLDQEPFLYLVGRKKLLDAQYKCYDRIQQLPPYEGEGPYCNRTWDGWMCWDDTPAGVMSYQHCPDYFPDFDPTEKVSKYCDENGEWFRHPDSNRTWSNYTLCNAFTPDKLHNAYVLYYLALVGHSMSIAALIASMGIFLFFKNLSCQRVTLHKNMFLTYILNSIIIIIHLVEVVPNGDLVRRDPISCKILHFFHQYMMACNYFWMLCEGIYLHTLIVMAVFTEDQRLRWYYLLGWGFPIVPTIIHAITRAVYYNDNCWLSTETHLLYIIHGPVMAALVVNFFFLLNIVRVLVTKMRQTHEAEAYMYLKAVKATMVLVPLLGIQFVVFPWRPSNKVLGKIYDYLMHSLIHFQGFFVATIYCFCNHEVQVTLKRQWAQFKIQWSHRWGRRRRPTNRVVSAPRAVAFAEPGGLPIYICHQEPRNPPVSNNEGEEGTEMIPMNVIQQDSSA
How it was run: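 BHK tk′ts 13 cells, transient rat calcitonin receptor transfection; DMEM + 10% FBS; harvest ~48 h post-transfection; membrane prep.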

[2] = bistrispropane buffer, pH 6.5, read-out: Solubility pH 6.5 Concentration
[3] = bistrispropane buffer, pH 7.5, read-out: Solubility pH 7.5 Concentration
[4] = bistrispropane buffer, pH 6.0, read-out: Solubility pH 6.0 Concentration
[5] = bistrispropane buffer, pH 7.0, read-out: Solubility pH 7.0 Concentration
[6] = bistrispropane buffer, pH 8.0, read-out: Solubility pH 8.0 Concentration
[7] = glycylglycine buffer, pH 3.0, read-out: Solubility pH 3.0 Concentration
[8] = glycylglycine buffer, pH 4.0, read-out: Solubility pH 4.0 Concentration
[9] = glycylglycine buffer, pH 5.0, read-out: Solubility pH 5.0 Concentration

Row | Structure (SMILES) | Food intake reduction 0-24 h 30 nmol/kg (%) (Sprague Dawley (SD) rats) | Food intake reduction 24-48 h 30 nmol/kg (%) (Sprague Dawley (SD) rats) | solubility at 18 h [1, 2] [µM] | solubility at 18 h [1, 3] [µM] | solubility at 18 h [1, 4] [µM] | solubility at 18 h [1, 5] [µM] | solubility at 18 h [1, 6] [µM] | solubility at 18 h [1, 7] [µM] | solubility at 18 h [1, 8] [µM] | solubility at 18 h [1, 9] [µM] | IC50 (rat calcitonin receptor) [nM]
1 | CC[C@H](C)[C@H](NC(=O)[C@H](C)NC(=O)CNC(=O)[C@H](Cc1ccccc1)NC(=O)[C@H](CC(N)=O)NC(=O)[C@@H]1CCCN1C(=O)[C@H](CO)NC(=O)[C@H](CO)NC(=O)[C@H](Cc1c[nH]cn1)NC(=O)[C@H](CCCNC(=N)N)NC(=O)[C@H](CC(C)C)NC(=O)[C@H](Cc1ccccc1)NC(=O)[C@H](Cc1c[nH]cn1)NC(=O)[C@H](C)NC(=O)[C@H](CC(C)C)NC(=O)[C@H](CCCNC(=N)N)NC(=O)[C@H](CCC(N)=O)NC(=O)[C@@H](NC(=O)[C@H](C)NC(=O)[C@@H]1CSSC[C@H](NC(=O)[C@@H](N)CCCCNC(=O)COCCOCCNC(=O)CC[C@H](NC(=O)CCCCCCCCCCCCCCCCCCC(=O)O)C(=O)O)C(=O)N[C@@H](CC(N)=O)C(=O)N[C@@H]([C@@H](C)O)C(=O)N[C@@H](C)C(=O)N[C@@H]([C@@H](C)O)C(=O)N1)[C@@H](C)O)C(=O)N1CCC[C@H]1C(=O)N[C@@H](CO)C(=O)N[C@@H](CO)C(=O)N[C@H](C(=O)N[C@@H](CC(N)=O)C(=O)N[C@H](C(=O)NCC(=O)N[C@@H](Cc1c[nH]cn1)C(=O)N[C@@H](CC(N)=O)C(=O)N[C@H](C(=O)N[C@@H](Cc1ccc(O)cc1)C(N)=O)[C@@H](C)O)C(C)C)[C@@H](C)O [Example 80] (H-K([AEEA-γGlu-C20 diacid])CNTATCATQRLAHFLRHSSPNFGAIPSSTNVGHNTY-NH2; disulfide 2-7; N-terminus assumed) | 46 | 9 | ≥ 200 | ≥ 200 | ≥ 200 | ≥ 200 | ≥ 200 | ≥ 200 | ≥ 200 | ≥ 200 | 60.4
2 | CC[C@H](C)[C@H](NC(=O)[C@H](C)NC(=O)CNC(=O)[C@H](Cc1ccccc1)NC(=O)[C@H](CC(N)=O)NC(=O)[C@@H]1CCCN1C(=O)[C@H](CO)NC(=O)[C@H](CO)NC(=O)[C@H](Cc1c[nH]cn1)NC(=O)[C@H](CCCNC(=N)N)NC(=O)[C@H](CC(C)C)NC(=O)[C@H](Cc1ccccc1)NC(=O)[C@H](Cc1c[nH]cn1)NC(=O)[C@H](C)NC(=O)[C@H](CC(C)C)NC(=O)[C@H](CCCNC(=N)N)NC(=O)[C@H](CCC(N)=O)NC(=O)[C@@H](NC(=O)[C@H](C)NC(=O)[C@@H]1CSSC[C@H](NC(=O)[C@@H](N)CCCCNC(=O)CC[C@H](NC(=O)CCCCCCCCCCCCCCCCCCC(=O)O)C(=O)O)C(=O)N[C@@H](CC(N)=O)C(=O)N[C@@H]([C@@H](C)O)C(=O)N[C@@H](C)C(=O)N[C@@H]([C@@H](C)O)C(=O)N1)[C@@H](C)O)C(=O)N1CCC[C@H]1C(=O)N[C@@H](CO)C(=O)N[C@@H](CO)C(=O)N[C@H](C(=O)N[C@@H](CC(N)=O)C(=O)N[C@H](C(=O)NCC(=O)N[C@@H](Cc1c[nH]cn1)C(=O)N[C@@H](CC(N)=O)C(=O)N[C@H](C(=O)N[C@@H](Cc1ccc(O)cc1)C(N)=O)[C@@H](C)O)C(C)C)[C@@H](C)O [Example 81] (H-K([γGlu-C20 diacid])CNTATCATQRLAHFLRHSSPNFGAIPSSTNVGHNTY-NH2; disulfide 2-7; N-terminus assumed) | 40 | 3 | ≥ 200 | ≥ 200 | ≥ 200 | ≥ 200 | ≥ 200 | ≥ 200 | ≥ 200 | ≥ 200 | 61.1
3 | CC[C@H](C)[C@H](NC(=O)[C@H](C)NC(=O)CNC(=O)[C@H](Cc1ccccc1)NC(=O)[C@H](CC(N)=O)NC(=O)[C@@H]1CCCN1C(=O)[C@H](CO)NC(=O)[C@H](CO)NC(=O)[C@H](Cc1c[nH]cn1)NC(=O)[C@H](CCCNC(=N)N)NC(=O)[C@H](CC(C)C)NC(=O)[C@H](Cc1ccccc1)NC(=O)[C@H](Cc1c[nH]cn1)NC(=O)[C@H](C)NC(=O)[C@H](CC(C)C)NC(=O)[C@H](CCCNC(=N)N)NC(=O)[C@H](CCC(N)=O)NC(=O)[C@@H](NC(=O)[C@H](C)NC(=O)[C@@H]1CSSC[C@H](NC(=O)[C@@H](N)CCCCNC(=O)COCCOCCNC(=O)CC[C@H](NC(=O)CCCCCCCCCCCCCCCCCCC(=O)O)C(=O)O)C(=O)N[C@@H](CC(N)=O)C(=O)N[C@@H]([C@@H](C)O)C(=O)N[C@@H](C)C(=O)N[C@@H]([C@@H](C)O)C(=O)N1)[C@@H](C)O)C(=O)N1CCC[C@H]1C(=O)N[C@@H](CO)C(=O)N[C@@H](CO)C(=O)N[C@H](C(=O)N[C@@H](CC(N)=O)C(=O)N[C@H](C(=O)NCC(=O)N[C@@H](CCCNC(=N)N)C(=O)N[C@@H](CC(N)=O)C(=O)N[C@H](C(=O)N[C@@H](Cc1ccc(O)cc1)C(N)=O)[C@@H](C)O)C(C)C)[C@@H](C)O [Example 84] (H-K([AEEA-γGlu-C20 diacid])CNTATCATQRLAHFLRHSSPNFGAIPSSTNVGRNTY-NH2; disulfide 2-7 (inferred); N-terminus assumed) | 10 | 0 | ≥ 200 | ≥ 200 | ≥ 200 | ≥ 200 | ≥ 200 | ≥ 200 | ≥ 200 | ≥ 200 | 477
